Laboratory results reported in patent US20010011082A1, “Parenteral bisphosphonate composition with improved local tolerance” (priority 2000, published 2001).

How the values were obtained:
[1] = rat, in vivo, pH 7.4
Procedure: (§1) Groups of 3 rats were treated with test formulations containing 1 mg ibandronate/ml physiological saline buffered at pH 7.4. One group of rats received the test formulation without any additional additive, another group received the test solution with 1 mg EDTA/ml as an additive. The back of the rat was shaved one day before treatment. A volume of 0.5 ml each was injected subcutaneously at three different sites of the right part of shaved back. The left side of the back was treated with the corresponding formulation without ibandronate (placebo). Local reactions were assessed by a scoring system for swelling: 0=no reaction, 0.5=barely perceptible swelling, 1=slight swelling, 2=moderate swelling, 3=marked swelling, 4=severe swelling. The animals were observed over 9 days and thereafter necropsied. At necropsy, the diameter of subcutaneous lesions, mainly consisting of reddening or swelling, was measured.
(§2) The same study design as described in example 1 was applied to examine the concentration dependence of the EDTA effect. EDTA was added at concentrations of 0.1, 1.0 and 10 mg/ml.
(§3) DTPA was added at a concentration of 10 mg/ml.
(§4) The same study design as described in example 1 was applied to examine the efficacy of EDTA on local reaction to s.c. injected alendronate. The test formulations contained 3 mg alendronate/ml physiological saline buffered at pH 7.4. EDTA was added at a concentration of 10 mg/ml.

[2] = Local tolerance test: s.c. injection of bisphosphonate solution pH 7.4 with and without chelating agent, swelling score and diameter of subcutaneous lesions at necropsy; details: for adverse local reaction at the application sites: additional bivalent cation chelator in bisphosphonate formulation, compared with corresponding formulation without chelator; for severity of subcutaneous findings at necropsy / intensity and duration of local swelling at the injection site: chelating agent in injectable formulations of alendronate or ibandronate; for severity of subcutaneous findings at necropsy: necropsy after 9 days; for intensity and duration of local swelling at the injection site: observed over 9 days
Procedure: as §1, §2, §3, §4

Compound	improving effect of EDTA on local tolerance (dose dependence) [1]	effect on local adverse reactions at lowest ratio ([2]; 1 mg ibandronate/ml pH 7.4, molar ibandronate to EDTA ratio 1:0.1 (EDTA 0.1 mg/ml))	local adverse reactions at highest ratio ([2]; 1 mg ibandronate/ml pH 7.4, molar ibandronate to EDTA ratio 1:10 (EDTA 10 mg/ml))	effect of EDTA on alendronate induced local reaction ([2]; 3 mg alendronate/ml physiological saline pH 7.4, EDTA 10 mg/ml, s.c.)	adverse local reaction at the application sites [2]	severity of subcutaneous findings at necropsy ([2]; s.c.)	intensity and duration of local swelling at the injection site ([2]; s.c.)	efficacy of DTPA as chelating agent on local reaction ([2]; 1 mg ibandronate/ml pH 7.4, DTPA 10 mg/ml, s.c.)
O=C(O)CN(CCN(CC(=O)O)CC(=O)O)CC(=O)O [EDTA, ethylenediaminetetraacetic acid]	dose-related	still some beneficial effect	still not completely abolished	could also be demonstrated	substantially improved	reduces	reduces	
O=C(O)CN(CCN(CC(=O)O)CC(=O)O)CCN(CC(=O)O)CC(=O)O [DTPA, diethylenetriaminepentaacetic acid]					substantially improved	reduces	reduces	could also be demonstrated
